Experimental findings from patent US10617622B2, “Hair restoration and/or hair growth promoting composition containing soyasaponin” (AMOREPACIFIC CORPORATION, priority 2015, dated 2020) are described below.

Test [1] deals with human dermal papilla cell line. The experiment in a line: Proliferation effect on hair follicle dermal papilla cells (WST-1 kit). It is filed as cell-based. The conditions noted are these: for hDPc proliferation (%): 24 hours after treatment, control = 100. As to the method:
First, in the present invention, a human dermal papilla cell line was used (obtained from Prof. Kwan Oh Sang of dermatology in Seoul National University Hospital). The cell line was cultured for 24 hours in an incubator maintained at 5% CO2, 37° C. using DMEM (Dulbecco's modified Eagle's medium; Gibco BRL, Gaithersburg, Md., USA) containing 10% FBS, and then independently treated with soyasaponin Aa at 1 ppm, 10 ppm, and 20 ppm. DMSO was used as a negative control. Cell proliferation (%) was measured using a WST-1 kit (Roche) 24 hours after the treatment with the test materials.

Test [2] concerns dermal papilla cells (DPC). The experiment in a line: Expression of hair growth factor VEGF in dermal papilla cells (VEGF ELISA). Conditions: 20 ppm, 24 hours. The class given is cell-based, human. As to the method:
In order to evaluate the degree of expression of vascular endothelial growth factor (VEGF) which is a growth factor necessary for transition of hair into the anagen phase as a growth factor necessary for angiogenesis by soyasaponin Aa, an in vitro system was applied to treat the soyasaponin Aa, and the activity thereof was evaluated. For the experiment, 4×10^5 dermal papilla cells (DPC) (P.11) of a person was seeded in a 12-well plate and cultured in DMEM (Dulbecco's modified Eagle's medium; GibcoBRL, Gaithersburg, Md., USA) containing 10% FBS (fetal bovine serum) overnight. After the culture, the cells were treated with soyasaponin Aa at 20 ppm. DMSO was used as a negative control. After 24 hours, the mixing solution with treated soyasaponin Aa was collected, and the degree of VEGF expression by the soyasaponin Aa was confirmed using VEGF ELISA (Vascular endothelial growth factor Enzyme-Linked Immunosorbent Assay; R&D biosystems).
On the technique in general: An ELISA detects its analyte on a solid surface through an enzyme-linked reagent.

Test [3] concerns human hair follicle organ. As to the kind of experiment: Hair growth promoting effect using human hair follicle organ culture. The class given is cell-based. Conditions: for Average growth length (mm): 8 days after the treatment, hair follicles of a person. As for the experimental part:
The hair follicle organ was isolated from the scalp tissue of the occipital region of a person one at a time, and cultured in William's E medium (containing L-glutamine (2 mM), insulin (10 μg/ml), hydrocortisone (40 ng/ml), antibiotics (1%) antimycotic (1%)).
The hair follicles grown on the third day after culturing were selected and cut into 3 mm. As for the selected hair follicle tissues, those without drug treatment were used as a control group, and the hair follicle tissues were each treated with soyasaponin Aa at 1 ppm, 5 ppm, and 10 ppm. Then, the hair length was measured 8 days after the treatment.

Bounds are passed on as bounds.

With `CC(=O)O[C@@H]1[C@@H](OC(C)=O)[C@H](O[C@@H]2[C@@H](O)[C@H](O[C@@H]3[C@H](O)C(C)(C)C[C@H]4C5=CC[C@@H]6[C@@]7(C)CC[C@H](O[C@@H]8O[C@H](C(=O)O)[C@@H](O)[C@H](O)[C@H]8O[C@@H]8O[C@H](CO)[C@H](O)[C@H](O)[C@H]8O[C@@H]8O[C@H](CO)[C@@H](O)[C@H](O)[C@H]8O)[C@](C)(CO)[C@@H]7CC[C@@]6(C)[C@]5(C)CC[C@@]34C)OC[C@@H]2O)OC[C@H]1OC(C)=O` [Soyasaponin Aa, soyasaponin Aa], the results for the “hDPc proliferation (%)” value in test [1] (1 ppm), in test [1] (10 ppm) and in test [1] (20 ppm) were 119%, 145% and 172%, respectively. For the same compound, in test [1] (20 ppm), the “rate of increase in dermal papilla cell proliferation compared with the control group” value is listed as no less than 1.7 times. For the same compound, the “increase of VEGF expression compared to the control group” value in test [2] (dermal papilla cells) is no less than 4 times. For the same compound, the “VEGF (ng/ml) in culture medium” value in test [2] (dermal papilla cells of a person, DMSO negative control) turned out to be 16.7 ng/mL. In addition, the “Average growth length (mm)” value in test [3] (1 ppm) was 1.71 mm; in test [3] (5 ppm) it was 2.05 mm; in test [3] (10 ppm), 2.46 mm. The “hair length growth effect compared to the control group” value in test [3] (10 ppm) was 1.5 times.
